Data from paper PMC11697409, “Design of Natterins-based peptides improves antimicrobial and antiviral activities” (Biotechnology Reports, 2024).
Read-outs that look alike come from different tables or passages of the source. Residues, ends and D or L forms follow the SMILES beside them. No end group written: not given here.

Assays:
[1] = system: trypsin; assay: Peptide stability to trypsin, HPLC-MS; assay type: in vitro ADME; settings: trypsin 20 μg/mL, peptide 100 μg/mL, incubation time not given; for Change after trypsin treatment, mass spectra: ESI-MS; for Change after trypsin treatment, HPLC chromatogram: HPLC C-18, UV 220 nm
Method: Peptide stability was evaluated under various conditions. To investigate the impact of temperature on peptide structure, samples were incubated at 37 °C and 60 °C for 24 h. A control sample was kept at -4 °C. To evaluate the distribution under acidic conditions, the peptides were dissolved in a 0.074 M HCl solution, resulting in a pH of 3. For evaluation under basic conditions, the peptides were dissolved in a 0.18 M NaOH solution, resulting in a pH of 11. A control sample was maintained at pH 7. Additionally, samples were exposed to trypsin solutions at a concentration of 20 µg/mL. All samples underwent analysis using High-Performance Liquid Chromatography (HPLC) coupled with Mass Spectrometry (LC/MS-2020 EV - Prominence; Shimadzu Corporation, Tokyo, Japan). The HPLC system comprised LC-10AD mobile phase pumps, an Ultrasphere C-18 column (5 µm; 4.6 × 250 mm), a UV-vis SPD-10AV detector set at a wavelength of 220 nm, and a mass spectrometer operating in electrospray ionization (ESI) mode with a quadrupole separator.
In mass spectrometry assays, an alkaline pH can lead to diverse outcomes. Specifically, in the analysis of proteins and peptides, an alkaline environment may induce unintended chemical modifications in certain samples, impacting ionization, fragmentation, and the detection of reference molecules. Additionally, the peptides underwent treatment with a trypsin solution at a concentration of 20 μg/mL.

[2] = system: G. mellonella larvae; assay: Toxicity in Galleria mellonella; assay type: in vivo; settings: 10 µL of 50 µM injected into the last left proleg, ten larvae per group, 7 days, three independent experiments
Method: For this study, the methodologies described by Mylonakis et al. and Jorjão et al., with some modifications were employed. G. mellonella larvae in their final larval stage were used for the experiment. Ten randomly selected G. mellonella larvae of similar weight and size (250 to 350 mg) were used per group in all assays. Syringes (Hamilton Inc., USA) used for injections were sterilized with peracetic acid (Henkel - Ecolab GmbH, Düsseldorf, Germany) according to the manufacturer's instructions prior to inoculation. Each larva was injected with 10 µL of each peptide (NATT2_06 and NATT4_01) at a concentration of 50 µM into the last left proleg. A control group was injected with PBS to assess overall viability. The number of deceased G. mellonella was recorded every 24 h after peptide injection, with monitoring continuing for 7 days across three independent experiments. […] The experiment concluded either when all larvae in the experimental group had died or transitioned into the pupal form.

[3] = system: human RBC; assay: Hemolytic test; assay type: cell-based; settings: 50 μM, 1 h at 37 °C, A570, 1 % TritonX-100 as positive control; highest percentage observed
Method: To perform the hemolytic test, human RBC was obtained from a volunteer donor. After centrifugation at 1000 xg for 5 min, the RBC pellets were resuspended in 5 % (vol/vol) sterile saline at different concentrations of peptides NATT2_06 and NATT4_01, and subsequently incubated at 37 °C for 1 hour. The supernatants were transferred to a 96-well plate, and the absorbance at 570 nm (A570) was measured. 0.12 % DMSO and 1 % TritonX-100 were used as negative and positive control, respectively. The hemolysis rate was calculated as Eq 1: Hemolysis%=A(sample)−A(DMSO)/A(Triton)−A(DMSO)x100

[4] = system: Chikungunya virus (CHIKV, ECSA genotype) in Huh-7 cells; assay type: cell-based; settings: vs untreated CHIKV control
Method: . First, the viral propagation and titration were performed in the adherent African green monkey kidney epithelial (Vero) cells (ATCC CRL-1586). The virus was grown in Vero cultured in MEM medium (Gibco, Waltham, MA, USA) supplemented with 10 % fetal bovine serum (FBS, Gibco), 100 U/mL penicillin, and 100 μg/mL streptomycin (Gibco, Waltham, MA, USA)-M10) for 48 h Then, the supernatant was collected, harvested, and titrated as previously described. The titer obtained for CHIKV was 9.3 × 10^6 PFU/ml.
The immortalized human hepatocytes derived from the hepatocarcinoma of an individual (Huh-7 lineage, CLS 300156) were cultured. The Huh-7 were grown in Minimum Essential Medium (Advanced MEM, Gibco®, USA), supplemented with 10 % (v/v) heat-inactivated fetal bovine serum (FBS) (Gibco®, USA), 100 U/mL penicillin, and 100 μg/mL streptomycin (PenStrep – Gibco®, USA), along with 2 mM L-glutamine (Gibco®, USA), and maintained in a humidified atmosphere with 5 % CO2 at 37 °C. […]
The second assay, named "co-treatment" (Figure S1b), involved removing the culture medium from the wells, washing with PBS, followed by simultaneous inoculation of CHIKV and peptides, diluted in the same manner in culture medium with the same supplementation, in triplicate. […] Cells were also monitored for 12 h. […]
After conducting the assays, each viral RNA in the samples' supernatant was extracted using the QIAamp® Viral RNA Mini Kit (QIAGEN®, Germany). […] For the molecular characterization of NATT peptide treatment, RNA samples extracted from the plaque challenge assays' supernatants and viral stock dilutions underwent quantitative reverse transcription PCR (RT-qPCR) assays. […]
For the RT-qPCR reaction, the AgPath-ID® One Step RT-qPCR kit (Applied Biosystems®, USA) was used for each extracted RNA in duplicate. […] All detection and quantification of viral RNA was done by real-time PCR of each sample (Table S1 and Figure S14). […]

[5] = various assays; cited from earlier work
Source text: Similarly, peptides including HKPLP, Cap18, Cap11, Cap11–1-18m², Cecropin B, Cecropin P1, Melittin, Indolic ...

[6] = system: trypsin; settings: cited from earlier work
Method: In the case of the peptide Cap11, this loss of activity occurs after 15 min of incubation. Conversely, a brief exposure of up to 5 min to trypsin enhances the antimicrobial activity of peptides such as Cap11–1-18m² by a factor of 2 [76]. […] The sp ...

Row | Compound | temperature withstood [5] | time of incubation with trypsin until antimicrobial activity is entirely lost [6] [s] | further results
1 | CC(C)C[C@H](NC(=O)[C@H](CCCCN)NC(=O)[C@@H]1CCCN1C(=O)[C@H](CCCNC(=N)N)NC(=O)[C@H](CC(C)C)NC(=O)[C@@H](NC(=O)[C@@H](N)[C@@H](C)O)[C@@H](C)O)C(=O)N[C@@H](CCCCN)C(=O)N[C@@H](CO)C(=O)N[C@@H](CCCCN)C(N)=O [NATT2_06] (H-TTLRPKLKSK-NH2) |  |  | Change after trypsin treatment, mass spectra [1]: displayed notable changes in mass; Change after trypsin treatment, HPLC chromatogram [1]: displayed notable changes in mass; Deaths of G. mellonella larvae [2]: only three deaths occurred; hemolysis [3]: 2%
2 | CC(C)C[C@H](NC(=O)[C@H](CCCCN)NC(=O)CNC(=O)[C@H](CC(C)C)NC(=O)CNC(=O)[C@H](Cc1ccc(O)cc1)NC(=O)[C@H](CCCCN)NC(=O)[C@H](CC(N)=O)NC(=O)[C@H](CCCCN)NC(=O)[C@H](C)NC(=O)[C@@H](NC(=O)[C@H](Cc1ccc(O)cc1)NC(=O)[C@@H](N)CC(C)C)C(C)C)C(N)=O [NATT4_01] (H-LYVAKNKYGLGKL-NH2) |  |  | Percentage of viral inhibition, co-treatment ([4]; 25 μM): 25,31%; Percentage of viral inhibition, co-treatment ([4]; 50 μM): 22,62%; Percentage of viral inhibition, co-treatment ([4]; 3125 μM (so in the source)): 22,44%; Change after trypsin treatment, mass spectra [1]: fragments of the peptide were discernible; Change after trypsin treatment, HPLC chromatogram [1]: no notable shifts observed in the chromatograms; Deaths of G. mellonella larvae [2]: no deaths were observed
3 | Cap18 | up to 100 °C | ≤ 30 | 
4 | Cecropin B | up to 100 °C | ≤ 30 | 
5 | Cecropin P1 (SWLSKTAKKLENSAKKRISEGIAIAIQGGPR; Cecropin-P1; UniProt P14661 14-44, looked up) | up to 100 °C | ≤ 30 | 
6 | Indolicidin (ILPWKWPWWPWRR; ends and bridges not checked; UniProt P33046 131-143, looked up) | up to 100 °C | ≤ 30 | 
7 | Melittin | up to 100 °C | ≤ 30 | 
